Test results as given in patent publication US20190388437A1, “COMPOSITIONS AND METHODS FOR TREATING BONE AND JOINT INFECTIONS” (priority 2014, published 2019).
In brackets after ≈: the same amount, converted by molar mass. Several values for one entry are separate records, joined by “and”; a condition that tells them apart may be missing. Identical values can stand only once. Like-named read-outs stand apart in the source and are kept apart here.

What was measured:
[1] = Dose escalation study, single and multiple doses: PK, safety, tolerability; assay type: in vivo, healthy adult subjects (human)
Experimental: Dose Escalation Study Using Single- and Multi-Dose FA. The pharmacokinetics (PK), safety, and tolerability of single and multiple doses of CEM-102 (sodium fusidate) were evaluated in a single-center, Phase 1, double-blind, randomized, placebo-controlled, dose-escalating study in 32 healthy adult subjects enrolled in 4 dosage groups (550, 1100, 1650, and 2200 mg). In each cohort, six subjects were to receive CEM-102 and two were to receive placebo in a single dose (Period 1) and then multiple doses BID for a total of 11 doses over 5.5 days (Period 2). The two dosing periods were separated by a seven-day washout period between the single dose in Period 1 and the first dose in Period 2.
Dosing proceeded as planned for Cohorts 1 to 3; however, Cohort 4 received only the single dose of 2200 mg (Period 1), because dose-limiting gastrointestinal intolerance was observed after multiple doses of 1650 mg BID in Cohort 3. Period 2 for Cohort 4 evaluated an initial loading dose regimen, and a second loading dose regimen was evaluated in an additional cohort (Cohort 5) per a protocol amendment.

[2] = tested on: WT isolates; test: MIC with 10% human serum added; assay type: cell-based
Experimental: (§1) CLSI broth microdilution (BMD) and anaerobic agar dilution (AD) methods were performed. Modifications of standard test methods included adding 10% human serum, adjusting the medium pH to 5, 6, and 8, and synergy was assessed by the checkerboard method. Mutational rates to R were determined at 4×.

[3] = tested on: coagulase-negative staphylococci [CoNS]; test: Reference broth microdilution susceptibility testing, Canadian isolates; assay type: cell-based; conditions: 15 isolates
From the text: (§2) To determine a contemporary susceptibility (S) spectrum pattern. 153 GP isolates (123 S. aureus, 15 coagulase-negative staphylococci [CoNS] and 15 S. pyogenes [SPYO]) were collected from 5 Canadian medical centers between 2001 and 2006.

[4] = tested on: S. pyogenes [SPYO]; test: as above; assay type: cell-based; conditions: Streptococcus pyogenes; all 15 isolates
From the text: as §2

[5] = tested on: S. aureus; test: as above; assay type: cell-based
From the text: as §2

[6] = tested on: Gram-positive (GP) species; test: CLSI broth microdilution / agar dilution MIC, spectrum study; assay type: cell-based
Experimental: as §1

[7] = tested on: Gram-negative (GN) species; test: as above; assay type: cell-based; conditions: all except E. brevis, M. catarrhalis, N. meningitidis
Experimental: as §1

[8] = tested on: S. aureus; conditions: cited from earlier work
[9] = cited from earlier work
[10] = tested on: S. aureus; test: MIC population distribution, 217 S. aureus Canadian isolates; assay type: cell-based; conditions: 217 Canadian isolates
[11] = in the blood; cited from earlier work
[12] = Period 1 Day 1, single dose 1650 mg

SMILES: CC(=O)O[C@H]1C[C@@]2(C)[C@@H](C[C@@H](O)[C@H]3[C@@]4(C)CC[C@@H](O)[C@@H](C)[C@@H]4CC[C@@]32C)/C1=C(\CCC=C(C)C)C(=O)O [FA, fusidic acid]
- tmax, median ([1]; Period 1 Day 1, single dose 1100 mg): 3.50 h
- T1/2, harmonic mean [1, 12]: 13.9 h
- tmax, median [1, 12]: 3.00 h
- tmax, median ([1]; Period 2 Day 6, 1100 mg BID): 4.00 h
- CL/F, mean ([1]; human, in vivo, 2200 mg): 0.924 L/h
- gastrointestinal AEs after single dose ([1]; in vivo): no gastrointestinal AEs were reported
- serious or life-threatening adverse events ([1]; in vivo): No serious or life-threatening adverse events (AEs) occurred
- tolerability of single doses ([1]; in vivo): well tolerated
- increase in MIC when 10% serum was added [2]: 4 fold
- MIC50 [3]: 0.12 µg/mL (≈ 0.232 µM)
- MIC90 [3]: 16 µg/mL (≈ 31 µM)
- MIC [4]: 4 to 8 µg/mL (≈ 7.74 to 15.5 µM)
- % at ≤0.5 ([5]; 2001-2002): 95.0%
- No. inhibited at MIC 0.06 μg/mL ([5]; 2001-2002): 8
- No. inhibited at MIC […] ([5]; 2001-2002): 29 and 1
- No. inhibited at MIC ≥2 μg/mL ([5]; 2001-2002): 2
- R rate over time ([5]; 2001-2006, breakpoint ≤0.5 μg/ml (S) and ≤2 μg/ml (R)): 5.0-12.2%
- % at ≤0.5 ([5]; 2003-2004): 92.9%
- MIC50 ([5]; 2003-2004): 0.12 µg/mL (≈ 0.232 µM)
- No. inhibited at MIC 0.06 μg/mL ([5]; 2003-2004): 6
- No. inhibited at MIC […] ([5]; 2003-2004): 33
- No. inhibited at MIC ≥2 μg/mL ([5]; 2003-2004): 3
- % at ≤0.5 ([5]; 2005-2006): 87.8%
- No. inhibited at MIC 0.06 μg/mL ([5]; 2005-2006): 2
- No. inhibited at MIC […] ([5]; 2005-2006): 32 and 2
- No. inhibited at MIC ≥2 μg/mL ([5]; 2005-2006): 5
- MIC90 ([5]; Staphylococcus aureus, 2003-2004): 0.12 µg/mL (≈ 0.232 µM)
- MIC90 ([5]; Staphylococcus aureus, 2005-2006): ≥ 2 µg/mL
- MIC90 ([5]; Staphylococcus aureus, overall S. aureus population): 0.25 µg/mL (≈ 0.484 µM)
- MIC90 ([5]; Staphylococcus aureus, 2001-2002): 0.12 µg/mL (≈ 0.232 µM)
- MIC50 ([5]; Staphylococcus aureus, 2001-2002, read-out: MIC50): 0.12 µg/mL (≈ 0.232 µM)
- R rate ([5]; overall S. aureus population): 8.1%
- MIC values range [6]: 0.06 to 32 µg/mL
- MIC [7]: ≥ 2 µg/mL
- MICs of resistant S. aureus strains ([8]; FA-resistant strains): > 256 µg/mL
- actual MIC ([8]; S. aureus, without protein): < 0.25 µg/mL
- MIC90 ([8]; S. aureus): 0.12 µg/mL (≈ 0.232 µM)
- Cmax in plasma at steady state ([9]; 500 mg TID, steady state after the 4th day): 140 µg/mL
- Cmax in plasma ([9]; after the first day of treatment, 500 mg TID): around 30 ug/ml
- oral bioavailability ([9]; oral): around 98%
- resistance rate (for CEM-102: isolates with MICs of ≥2.0 μg/mL) [10]: 6.5%
- Protein binding [11]: 95-97% and 96-98%
